What was measured:
[1] = test system: p21 promoter; experiment: Cell-based p21 promoter luciferase screen with IC50 validation in H1299 cells with doxycycline-inducible p53; conditions: luciferase under p21 promoter, about 20 hours
Experimental: A cell-based screen was carried out to identify p21 inhibitors (FIG. 1a). H1299 cells (a cell line having a deletion in the p53 locus) were used. The H1299 cells contain a TetOn system for the inducible expression of p53. In addition, they contain luciferase under the control of the p21 promoter, which is activated by p53. Intracellular p53 expression was induced with doxycycline (0.5 μg/ml). Immediately thereafter, cells were exposed to test substances (5 μM) of the ChemBioNet collection (Leibniz Institut far Molekulare Pharmakologie, Berlin). About 20 hours later, cells were lysed and luciferase activity was determined. […]

[2] = test system: p21-mRNA; experiment: p21-mRNA expression by qPCR in organs of Nothobranchius furzeri after intraperitoneal injection; type: in vivo; conditions: all tissues tested, 10 μM intraperitoneal, 48 h post treatment
Experimental: FIG. 6: Decreased p21-mRNA expression in different organs of model organism Nothobranchius furzeri in response to I18-inhibitor treatment. p21-mRNA expression in different organs was analysed by quantitative PCR (qPCR) in response to treatment with the p21-inhibitor I18. Upper panel depicts the fold expression difference of p21-mRNA relative to tbp (TATA-box binding protein). Lower panel depicts fold expression of p21-mRNA relative to control (DMSO-treated animals). Note that there is an over 2-fold reduction in all tissues tested indicating the efficiency of p21-inhibitors across different species. 10 weeks old Nothobranchius furzeri were either injected intraperitoneal with I18-compound [10 μM] or with DMSO as control and sacrificed 48 h post treatment. RNA of various tissues was harvested and p21-mRNA expression was measured using quantitative PCR (qPCR). Fold expression was calculated relative to house-keeping gene tbp (TATA-box binding protein) (FIG. 6, upper panel) or control animals (FIG. 6, lower panel).

[3] = test system: wound healing in C57BL/6 mice; experiment: Wound healing after skin biopsy in C57BL/6 mice, intradermal injection; type: in vivo
Description: FIG. 4: I-18 treatment improves wound healing in 24 week C57BL/6 mice Skin-biopsies (4-5 mm) were taken at Day 0 (D0) and lesions were either treated with 118 inhibitor (right panel) or DMSO treated as control (left panel).
FIG. 5: Depicts a statistic evaluation of the wound healing area 0, 2, and 4 days after application of I18 or placebo to wound area. Skin biopsies (4-5 mm) were taken at Day 0 of young and old C57Bl6 mice and lesions were either treated with I18 inhibitor or DMSO. […] This trend further increased at Day 4.
Skin-biopsies (4-5 mm) were taken at Day 0 (D0) and lesions were either treated with I18 compound (FIG. 4, right panel) or DMSO as control (FIG. 4, left panel) by intradermal injection [50 μM].

[4] = Homo sapiens, NCI-H1299, p53 induced with doxycycline 0.5 μg/ml

Compound | IC50 [1, 4] | also measured
CCOC(=O)c1ccc(Nc2nc3nonc3nc2Nc2cccc(C)c2C)cc1 [A13, Ethyl-4-[[5-(2,3-dimethylanilino)-[1,2,5]oxadiazolo[3,4-b]pyrazin-6-yl]amino]benzoate] | 760 nM | 
Cc1c(Br)ccc(Nc2c([N+](=O)[O-])cc3c4c(cccc24)C(=O)N(CCO)C3=O)c1C [M3, 6-(4-Bromo-2,3-dimethylanilino)-2-(2-hydroxyethyl)-5-nitrobenzo[de]isoquinoline-1,3-dione] | 3580 nM | 
COc1ccc(C(=O)Nc2nc(NC(=O)c3ccc(F)cc3)nn2-c2ccccc2)cc1 [E6, N-[5-[(4-Fluorobenzoyl)amino]-2-phenyl-1,2,4-triazol-3-y1]-4-methoxybenzamide] |  | IC50 ([1]; p53 induced with doxycycline 0.5 μg/ml): 490 nM
O=c1c2ccccc2c2nccc3c4cc(O)ccc4n1c32 [P21, 5-hydroxy-9H-benzo[c]indolo[3,2,1-ij][1,5]naphthyridin-9-one] | 1070 nM | 

Now from value to compound, other results behind:

IC50 [1, 4] | Compound | also measured
3680 nM | CCc1ccc2c(c1)C1(NN=C(c3cccc4ccccc34)S1)C(=O)N2 (centres unmarked) [O6, 5-Ethyl-5′naphthalen-1-ylspiro[1H-indole-3,2′-3H-1,3,4-thiadiazole]-2-one] | 
1130 nM | COc1ccc(C2C(C#N)=C(N)Oc3c2ccc2ccccc32)cc1C (centres unmarked) [A6, 2-amino-4-(4-methoxy-3-methylphenyl)-4H-benzo[h]chromene-3-carbonitrile] | 
1110 nM | CC(C)c1ccc(-c2c(C#N)c(N)n3c(nc4ccccc43)c2C#N)cc1 [N13, 1-Amino-3-(4-propan-2-ylphenyl)pyrido[1,2-a]benzimidazole-2,4-dicarbonitrile] | 
170 nM | Cc1ccc2[nH]c3c(c2c1)CCCC3Nc1ccccc1 (centres unmarked) [I18, 6-methyl-N-phenyl-2,3,4,9-tetrahydro-1H-carbazol-1-amine] | reduction of p21-mRNA expression relative to control (DMSO-treated animals) [2]: over 2 fold; wound healing in old treated mice versus p21-deficient mice ([3]; after 4 days, old mice): comparable to p21-deficient mice; wound healing of old mice compared to mock treated control mice of the same age ([3]; day 2, old C57Bl6 mice, trend further increased at day 4): significantly improved; wound healing compared to DMSO treated control mice ([3]; day 2 and 4, skin biopsies 4-5 mm, intradermal injection 50 μM): significantly improved
6080 nM | NS(=O)(=O)c1ccc(CCNc2ncnc3c2c(-c2ccccc2)cn3-c2ccc(Br)cc2)cc1 [F3, 4-[2-[[7-(4-Bromophenyl)-5-phenylpyrrolo[2,3-d]pyrimidin-4-yl]amino]ethyl]benzenesulfonamide] | 
1720 nM | O=C(Nc1ccc(OCC(F)(F)C(F)F)c(C(F)(F)F)c1)c1ccccc1O [K2, 2-Hydroxy-N-[4-(2,2,3,3-tetrafluoropropoxy)-3-(trifluoromethyl)phenyl)benzamide] | 
